Drawing on ChEMBL document CHEMBL1134923, “Novel semi-synthetic glycopeptide antibiotics active against methicillin-resistant staphylococcus aureus (MRSA) and vancomycin-resistant Enterococci (VRE): doubly-modified water-soluble derivatives of chloroorienticin B” (Bioorg Med Chem Lett, 2002), this text covers MIC and Solubility for eight compounds.

One data set relates to Enterococcus faecalis. The data set is described as follows: Minimum Inhibitory Concentration against Enterococcus faecalis SR-7914 (VRE) was determined. In kind it is functional.
The test system of a further data set is Enterococcus faecium. The data set is described as follows: Minimum Inhibitory Concentration against Enterococcus faecium SR-7917 (VRE) was determined. It counts as functional.
In another data set the test system is Staphylococcus aureus. The data set can be described thus: Minimum Inhibitory Concentration against Staphylococcus aureus SR-3637 (MRSA) was determined. It counts as functional.
The nature of data set [1]: Solubility in water was determined. In kind it is physicochemical.

Converted amounts (≈) assume the structure as drawn. Some results are limits rather than exact numbers.

The MIC is the least concentration at which growth counts as inhibited. Low values mean greater potency, high ones weaker potency. `CN[C@H](CC(C)C)C(=O)N[C@H]1C(=O)N[C@@H](CC(N)=O)C(=O)N[C@H]2C(=O)NC3C(=O)NC(C(=O)N[C@@H](C(=O)O)c4cc(O)cc(O)c4-c4cc3ccc4O)[C@H](O[C@H]3C[C@](C)(NCc4ccc(-c5ccc(Cl)cc5)cc4)[C@@H](O)[C@H](C)O3)c3ccc(c(Cl)c3)Oc3cc2cc(c3O[C@@H]2O[C@H](CO)[C@@H](O)[C@H](O)[C@H]2O)Oc2ccc(cc2Cl)[C@H]1O` (some centres not stated): the MIC against Enterococcus faecalis stood at 12.5 µg/mL (≈ 7.58 µM); against Enterococcus faecium it was 6.25 µg/mL (≈ 3.79 µM); against Staphylococcus aureus, 0.1 µg/mL (≈ 0.0606 µM).
Turning to `CN[C@H](CC(C)C)C(=O)N[C@H]1C(=O)N[C@@H](CC(N)=O)C(=O)N[C@H]2C(=O)NC3C(=O)NC(C(=O)N[C@@H](C(=O)O)c4cc(O)cc(O)c4-c4cc3ccc4O)[C@H](O[C@H]3C[C@](C)(N)[C@@H](O)[C@H](C)O3)c3ccc(c(Cl)c3)Oc3cc2cc(c3O[C@@H]2O[C@H](CO)[C@@H](O)[C@H](O)[C@H]2O)Oc2ccc(cc2Cl)[C@H]1O` (some centres not stated), the Solubility in data set [1] is more than 10%. Besides, the MIC was more than 100 µg/mL against Enterococcus faecalis, more than 100 µg/mL in the data set with Enterococcus faecium and 0.78 µg/mL (≈ 0.538 µM) with Staphylococcus aureus.
For the compound `CCCCCCCCCCCCCN[C@@]1(C)C[C@H](O[C@@H]2c3ccc(c(Cl)c3)Oc3cc4cc(c3O[C@@H]3O[C@H](CO)[C@@H](O)[C@H](O)[C@H]3O)Oc3ccc(cc3Cl)[C@@H](O)[C@@H](NC(=O)[C@@H](CC(C)C)NC)C(=O)N[C@@H](CC(N)=O)C(=O)N[C@H]4C(=O)NC3C(=O)NC2C(=O)N[C@@H](C(=O)O)c2cc(O)cc(O)c2-c2cc3ccc2O)O[C@@H](C)[C@@H]1O` (some centres not stated), the MIC with Enterococcus faecalis amounted to 12.5 µg/mL (≈ 7.66 µM); in the data set with Enterococcus faecium, 6.25 µg/mL (≈ 3.83 µM); with Staphylococcus aureus, 0.2 µg/mL (≈ 0.123 µM).
The matching figures for `CCCCCCCOc1ccc(CN[C@@]2(C)C[C@H](O[C@@H]3c4ccc(c(Cl)c4)Oc4cc5cc(c4O[C@@H]4O[C@H](CO)[C@@H](O)[C@H](O)[C@H]4O)Oc4ccc(cc4Cl)[C@@H](O)[C@@H](NC(=O)[C@@H](CC(C)C)NC)C(=O)N[C@@H](CC(N)=O)C(=O)N[C@H]5C(=O)NC4C(=O)NC3C(=O)N[C@@H](C(=O)O)c3cc(O)cc(O)c3-c3cc4ccc3O)O[C@@H](C)[C@@H]2O)cc1` (some centres not stated): 25 µg/mL (≈ 15.1 µM), 12.5 µg/mL (≈ 7.56 µM) and 0.39 µg/mL (≈ 0.236 µM).
The matching figures for `CN[C@H](CC(C)C)C(=O)N[C@H]1C(=O)N[C@@H](CC(N)=O)C(=O)N[C@H]2C(=O)NC3C(=O)NC(C(=O)N[C@@H](C(=O)O)c4cc(O)cc(O)c4-c4cc3ccc4O)[C@H](O[C@H]3C[C@](C)(NCc4ccc(-c5ccc(-c6ccccc6)cc5)cc4)[C@@H](O)[C@H](C)O3)c3ccc(c(Cl)c3)Oc3cc2cc(c3O[C@@H]2O[C@H](CO)[C@@H](O)[C@H](O)[C@H]2O)Oc2ccc(cc2Cl)[C@H]1O` (some centres not stated): 12.5 µg/mL (≈ 7.39 µM), 3.13 µg/mL (≈ 1.85 µM) and 0.39 µg/mL (≈ 0.231 µM).
With `CN[C@H](CC(C)C)C(=O)N[C@H]1C(=O)N[C@@H](CC(N)=O)C(=O)N[C@H]2C(=O)N[C@H]3C(=O)N[C@H](C(=O)N[C@H](C(=O)O)c4cc(O)cc(O)c4-c4cc3ccc4O)[C@H](O)c3ccc(c(Cl)c3)Oc3cc2cc(c3O[C@@H]2O[C@H](CO)[C@@H](O)[C@H](O)[C@H]2O[C@H]2C[C@](C)(N)[C@H](O)[C@H](C)O2)Oc2ccc(cc2Cl)[C@H]1O` [VANCOMYCIN], the Solubility in data set [1] is on record as more than 10%. The MIC against Enterococcus faecalis is more than 100 µg/mL; with Enterococcus faecium, more than 100 µg/mL; against Staphylococcus aureus, 1.56 µg/mL (≈ 1.08 µM).
Consider `CN[C@H](CC(C)C)C(=O)N[C@H]1C(=O)N[C@@H](CC(N)=O)C(=O)N[C@H]2C(=O)NC3C(=O)NC(C(=O)N[C@@H](C(=O)O)c4cc(O)cc(O)c4-c4cc3ccc4O)[C@H](O[C@H]3C[C@](C)(NCc4ccc(C#Cc5ccc(Cl)cc5)cc4)[C@@H](O)[C@H](C)O3)c3ccc(c(Cl)c3)Oc3cc2cc(c3O[C@@H]2O[C@H](CO)[C@@H](O)[C@H](O)[C@H]2O)Oc2ccc(cc2Cl)[C@H]1O` (some centres not stated), for which the MIC came to 12.5 µg/mL (≈ 7.47 µM) in the data set on Enterococcus faecalis, 6.25 µg/mL (≈ 3.73 µM) with Enterococcus faecium and 0.2 µg/mL (≈ 0.119 µM) against Staphylococcus aureus.
The compound `CN[C@H](CC(C)C)C(=O)N[C@H]1C(=O)N[C@@H](CC(N)=O)C(=O)N[C@H]2C(=O)NC3C(=O)NC(C(=O)N[C@@H](C(=O)O)c4cc(O)cc(O)c4-c4cc3ccc4O)[C@H](O[C@H]3C[C@](C)(NCc4ccc(/C=C/c5ccc(Cl)cc5)cc4)[C@@H](O)[C@H](C)O3)c3ccc(c(Cl)c3)Oc3cc2cc(c3O[C@@H]2O[C@H](CO)[C@@H](O)[C@H](O)[C@H]2O)Oc2ccc(cc2Cl)[C@H]1O` (some centres not stated) came in with a Solubility in data set [1] of less than 1%. Further, the MIC with Enterococcus faecalis worked out at 6.25 µg/mL (≈ 3.73 µM); against Enterococcus faecium it was 6.25 µg/mL (≈ 3.73 µM); in the data set on Staphylococcus aureus, 0.2 µg/mL (≈ 0.119 µM).
